Experimental data taken from patent US20220017512A1 (SHANGHAI ENNOVABIO PHARMACEUTICALS CO., LTD., priority 2018, published 2022).

How the values were obtained:
[1] = molecular target: T1, Recombinant human TRKA (Homo sapiens, UniProt P04629); test: In vitro activity test on TRKA kinase (HTRF KinEASE TK); type: biochemical; settings: 14.68 μM ATP, 40 min
T1 construct: purchased Carna Biosciences
How it was run: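 Reaction: 0.2 ng/μL TRKA, 1 μM biotinylated TK substrate, 14.68 μM ATP, 5 mM MgCl2, 1 mM DTT, 1% DMSO, 40 min at room temperature. Compounds tested at 1 μM to 0.05 nM (10-point, 3-fold, duplicate). HTRF 665/620 ratio converted to % inhibition versus no-compound control; IC50 by 4-parameter fit.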

[2] = molecular target: T2, Recombinant human TRKB (Homo sapiens, UniProt Q16620); test: In vitro activity test on TRKB kinase (HTRF KinEASE TK); type: biochemical; settings: 4.77 μM ATP, 50 min
T2 construct: purchased Carna Biosciences
How it was run: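 Recombinant human TRKB (0.037 ng/μL) phosphorylated 1 μM biotinylated TK substrate at 4.77 μM ATP, 5 mM MgCl2, 1% DMSO, 50 min at room temperature; compounds 1 μM–0.05 nM. HTRF KinEASE detection overnight; 665/620 ratio converted to inhibition and IC50 from 4-parameter fit.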

[3] = molecular target: T3, Recombinant human TRKC (Homo sapiens, UniProt Q16288); test: In vitro activity test on TRKC kinase (HTRF KinEASE TK); type: biochemical; settings: 25.64 μM ATP, 40 min
T3 construct: purchased Carna Biosciences
How it was run: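 Recombinant human TRKC (0.037 ng/μL) with 1 μM biotinylated TK substrate, 25.64 μM ATP, 5 mM MgCl2, 1 mM DTT, 40 min at room temperature; compound 1 μM to 0.05 nM, 1% DMSO. HTRF 665/620 ratio after overnight detection; IC50 from 4-parameter fit.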

[4] = molecular target: T4, recombinant human TRKA (G595R) (Homo sapiens, UniProt P04629, G595R); test: In vitro activity test on mutant TRKA (G595R) (HTRF KinEASE TK); type: biochemical; settings: 4.5 μM ATP, 30 min
T4 construct: purchased SignalChem
How it was run: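 HTRF KinEASE TK format: 0.12 ng/μL recombinant TRKA (G595R), 1 μM biotinylated TK substrate, 4.5 μM ATP, 5 mM MgCl2, 1 mM DTT, 1% DMSO, 30 min at room temperature; detection overnight. IC50 from 10-point 4-fold series (1 μM to 0.004 nM, duplicates), 665/620 ratio, 4-parameter fit.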

[5] = molecular target: T5, recombinant human TRKA (G667C) (Homo sapiens, UniProt P04629, G667C); test: In vitro activity test on mutant TRKA (G667C) (HTRF KinEASE TK); type: biochemical; settings: 5.5 μM ATP, 30 min
T5 construct: purchased SignalChem
How it was run: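 HTRF KinEASE TK format with recombinant human TRKA G667C (0.026 ng/μL), 1 μM biotinylated TK substrate, 5.5 […] ATP, 5 mM MgCl2, 1 mM DTT, 1% DMSO; 30 min at room temperature. Detection overnight; 665/620 ratio gives % inhibition, IC50 from 4-parameter fit over 10 doses (1 μM–0.004 nM).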

[6] = Pharmacokinetics experiment in mice; type: in vivo, ICR mice; settings: mouse, 5 mg/kg; for Cmax / half-life / AUC(0-t): ICR, plasma, po; for AUC(0-t) / F: p.o.; for AUC(0-t): read-out: AUC0-24 hr
Procedure: Biological Test Example 6: Pharmacokinetics Experiment of Small Molecular Inhibitors of the Present Invention in Mice
Tested compounds were administered to ICR mice via intravenous administration (IV) and para-oral (PO) administration, and blood samples were taken at different time points. The concentration of the tested article in mouse plasma was measured by LC-MS/MS, and relevant parameters were calculated. Specifically, a desired amount of a compound to be tested was taken and formulated in 5% DMSO+10% Solutol+85% injection water to form a solution at desired concentration for intravenous administration or para-oral administration. Animals were about 6-8 weeks old when the administration experiment started. Blood collection time for intravenous administration: 0.083 h, 0.25 h, 0.5 h, 1 h, 2 h, 4 h, 8 h, and 24 h after administration. Blood collection time for oral administration: 0.25 h, 0.5 h, 1 h, 2 h, 4 h, 6 h, 8 h and 24 h after administration. The biological sample analysis method and sample detection method were established. The pharmacokinetic parameters were calculated using Phoenix Winnonlin 7.0 software according to plasma concentration data at different time points, such as AUC(0-t), AUC(0-∞), T½, Cmax, Tmax, and MRT.

T1 sequence (P04629 33-796): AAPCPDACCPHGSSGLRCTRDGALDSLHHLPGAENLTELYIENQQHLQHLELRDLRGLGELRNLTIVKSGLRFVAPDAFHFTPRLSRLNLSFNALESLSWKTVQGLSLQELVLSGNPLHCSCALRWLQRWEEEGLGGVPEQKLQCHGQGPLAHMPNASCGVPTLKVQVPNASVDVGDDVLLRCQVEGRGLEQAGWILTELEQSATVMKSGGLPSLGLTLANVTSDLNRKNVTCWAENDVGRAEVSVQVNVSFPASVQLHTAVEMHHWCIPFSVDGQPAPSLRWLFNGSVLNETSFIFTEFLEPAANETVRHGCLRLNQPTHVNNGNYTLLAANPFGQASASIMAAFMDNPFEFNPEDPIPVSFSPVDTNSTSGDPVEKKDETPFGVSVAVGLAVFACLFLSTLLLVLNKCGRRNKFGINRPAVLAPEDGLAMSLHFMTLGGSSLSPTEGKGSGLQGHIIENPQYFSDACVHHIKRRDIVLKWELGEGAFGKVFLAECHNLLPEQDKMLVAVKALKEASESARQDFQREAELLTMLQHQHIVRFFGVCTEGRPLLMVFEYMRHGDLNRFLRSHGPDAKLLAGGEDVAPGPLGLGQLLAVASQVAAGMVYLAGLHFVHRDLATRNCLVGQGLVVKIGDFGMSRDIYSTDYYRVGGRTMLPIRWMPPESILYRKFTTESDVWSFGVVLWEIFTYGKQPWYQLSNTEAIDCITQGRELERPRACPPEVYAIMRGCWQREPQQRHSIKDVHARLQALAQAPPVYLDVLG
T3 sequence (Q16288 32-839): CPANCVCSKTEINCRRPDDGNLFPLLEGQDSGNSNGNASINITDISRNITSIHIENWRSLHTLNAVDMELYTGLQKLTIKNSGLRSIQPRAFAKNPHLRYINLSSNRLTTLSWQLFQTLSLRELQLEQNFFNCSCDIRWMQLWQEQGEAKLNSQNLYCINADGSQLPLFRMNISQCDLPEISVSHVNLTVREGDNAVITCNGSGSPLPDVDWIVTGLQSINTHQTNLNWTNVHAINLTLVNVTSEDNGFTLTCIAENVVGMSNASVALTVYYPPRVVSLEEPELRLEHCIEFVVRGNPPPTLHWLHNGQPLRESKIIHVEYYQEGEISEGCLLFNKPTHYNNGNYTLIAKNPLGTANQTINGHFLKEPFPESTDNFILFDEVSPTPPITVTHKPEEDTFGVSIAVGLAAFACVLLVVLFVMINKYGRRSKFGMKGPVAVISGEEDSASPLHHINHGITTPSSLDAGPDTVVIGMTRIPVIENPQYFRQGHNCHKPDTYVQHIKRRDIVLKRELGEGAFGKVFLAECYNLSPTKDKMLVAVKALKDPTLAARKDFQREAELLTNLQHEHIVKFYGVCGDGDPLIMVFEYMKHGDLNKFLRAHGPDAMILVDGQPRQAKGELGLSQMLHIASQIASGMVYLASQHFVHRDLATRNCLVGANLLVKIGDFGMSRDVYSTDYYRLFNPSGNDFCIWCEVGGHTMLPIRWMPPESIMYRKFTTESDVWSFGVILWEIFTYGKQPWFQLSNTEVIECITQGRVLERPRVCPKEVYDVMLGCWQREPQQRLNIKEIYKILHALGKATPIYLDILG
T4 sequence (P04629 33-796 G595R): as the sequence (P04629 33-796) above, with G563R counted along it
T5 sequence (P04629 33-796 G667C): as the sequence (P04629 33-796) above, with G635C counted along it
T2 sequence (Q16620 32-822): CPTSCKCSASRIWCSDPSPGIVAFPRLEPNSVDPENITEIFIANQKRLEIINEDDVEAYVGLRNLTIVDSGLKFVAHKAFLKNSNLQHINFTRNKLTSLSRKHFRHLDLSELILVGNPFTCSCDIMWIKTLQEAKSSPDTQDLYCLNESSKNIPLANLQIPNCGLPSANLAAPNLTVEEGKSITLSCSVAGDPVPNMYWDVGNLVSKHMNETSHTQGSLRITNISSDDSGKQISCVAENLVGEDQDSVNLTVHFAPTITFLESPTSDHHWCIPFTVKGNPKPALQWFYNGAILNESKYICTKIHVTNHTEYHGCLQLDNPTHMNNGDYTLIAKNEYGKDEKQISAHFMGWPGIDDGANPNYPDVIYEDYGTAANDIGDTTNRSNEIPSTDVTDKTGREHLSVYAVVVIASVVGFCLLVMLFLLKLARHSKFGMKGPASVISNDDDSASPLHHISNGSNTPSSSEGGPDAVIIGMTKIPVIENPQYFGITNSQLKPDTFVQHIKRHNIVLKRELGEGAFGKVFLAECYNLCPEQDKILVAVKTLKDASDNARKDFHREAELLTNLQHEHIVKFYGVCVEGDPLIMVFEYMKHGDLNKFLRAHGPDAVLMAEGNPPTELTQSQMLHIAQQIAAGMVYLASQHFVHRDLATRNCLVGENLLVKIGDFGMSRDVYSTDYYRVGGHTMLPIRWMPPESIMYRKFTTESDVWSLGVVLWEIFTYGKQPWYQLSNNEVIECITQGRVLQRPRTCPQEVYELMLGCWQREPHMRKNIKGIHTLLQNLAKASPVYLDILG

IC50 [1]	IC50 [2]	IC50 [3]	IC50 [4]	IC50 [5]	Cmax [6]	half-life [6]	AUC(0-t) [6]	F [6]	SMILES
< 1 nM	< 1 nM	< 1 nM	< 1 nM	< 1 nM	448 ng/mL	2.82 h	2700 ng·h/mL	144%	Fc1ccc(F)c([C@H]2C[C@H](F)CN2c2ccc3ncc(F)c(-c4cnn(C5CCNCC5)c4)c3n2)c1 [Example 20]
< 10 nM	< 10 nM	< 10 nM	< 10 nM	< 10 nM	–	–	–	–	OC1CCC(Nc2ccnc3ccc(N4C[C@@H](F)C[C@@H]4c4cc(F)ccc4F)nc23)C1 (stereo partly drawn) [Example 2, 3-((6-((2R,4S)-2-(2,5-difluorophenyl)-4-fluoropyrrolidin-1-yl)-1,5-naphthyridin-4-yl)amino)cyclopentan-1-ol]
< 1 nM	< 10 nM	< 10 nM	< 10 nM	< 50 nM	–	–	–	–	CC1(C)CC(n2cc(-c3ccnc4ccc(N5CCC[C@@H]5c5cc(F)ccc5F)nc34)cn2)CCN1 (stereo partly drawn) [Example 17, 2-((R)-2-(2,5-difluorophenyl)pyrrolidin-1-yl)-8-(1-(2,2-dimethylpiperidin-4-yl)-1H-pyrazol-4-yl)-1,5-naphthyridine]
< 1 nM	< 1 nM	< 1 nM	< 10 nM	< 1 nM	714 ng/mL	2.34 h	3230 ng·h/mL	107%	Fc1ccc(F)c([C@H]2C[C@H](F)CN2c2ccc3ncc(Cl)c(-c4cnn(C5CCNCC5)c4)c3n2)c1 [Example 16, 7-chloro-2-((2R,4S)-2-(2,5-difluorophenyl)-4-fluoropyrrolidin-1-yl)-8-(1-(piperidin-4-yl)-1H-pyrazol-4-yl)-1,5-naphthyridine]
< 1 nM	< 1 nM	< 1 nM	< 1 nM	< 10 nM	–	–	–	–	O[C@H]1CCN(c2ccc(-c3ncnc4ccc(N5C[C@@H](F)C[C@@H]5c5cc(F)ccc5F)nc34)cn2)C1 [Example 75, (S)-1-(5-(6-((2R,4S)-2-(2,5-difluorophenyl)-4-fluoropyrrolidin-1-yl)pyrido[3,2-d]pyrimidin-4-yl)pyridin-2-yl)pyrrolidin-3-ol]
< 1 nM	< 10 nM	< 10 nM	< 10 nM	< 10 nM	–	–	–	–	Fc1ccc(F)c([C@H]2C[C@H](F)CN2c2ccc3ncc(F)c(-c4noc(C5CCNCC5)n4)c3n2)c1 [Example 73, 3-(6-((2R,4S)-2-(2,5-difluorophenyl)-4-fluoropyrrolidin-1-yl)-3-fluoro-1,5-naphthyridin-4-yl)-5-(piperidin-4-yl)-1,2,4-oxadiazole]
< 1 nM	< 1 nM	< 10 nM	< 10 nM	< 10 nM	–	–	–	–	O=C(Nc1c(Cl)cnc2ccc(N3C[C@@H](F)C[C@@H]3c3cc(F)ccc3F)nc12)N1CC[C@H](O)C1 [Example 49, (S)-N-(3-Chloro-6-((2R,4S)-2-(2,5-difluorophenyl)-4-fluoropyrrolidin-1-yl)-1,5-naphthyridin-4-yl)-3-hydroxypyrrolidin-1-carboxamide]
< 1 nM	< 1 nM	< 1 nM	< 10 nM	< 10 nM	–	–	–	–	CC1(O)CC(n2cc(-c3c(Cl)cnc4ccc(N5C[C@@H](F)C[C@@H]5c5cc(F)ccc5F)nc34)cn2)C1 (stereo partly drawn) [Example 39, 3-(4-(3-chloro-6-((2R,4S)-2-(2,5-difluorophenyl)-4-fluoropyrrolidin-1-yl)-1,5-naphthyridin-4-yl)-1H-pyrazol-1-yl)-1-methylcyclobutan-1-ol]
< 1 nM	< 10 nM	< 10 nM	< 50 nM	< 50 nM	–	–	–	–	COC1(C)CC(n2cc(-c3c(Cl)cnc4ccc(N5C[C@@H](F)C[C@@H]5c5cc(F)ccc5F)nc34)cn2)C1 (stereo partly drawn) [Example 38, 7-chloro-2-((2R,4S)-2-(2,5-difluorophenyl)-4-fluoropyrrolidin-1-yl)-8-(1-(3-methoxy-3-methylcyclobutyl)-1H-pyrazol-4-yl)-1,5-naphthyridine]
< 1 nM	< 10 nM	< 10 nM	< 1 nM	< 10 nM	–	–	–	–	COc1ncc(F)cc1[C@H]1CCCN1c1ccc2ncc(Cl)c(-c3cnn(C4CCNCC4)c3)c2n1 [Example 30, (R)-7-chloro-2-(2-(5-fluoro-2-methoxypyridin-3-yl)pyrrolidin-1-yl)-8-(1-(piperidin-4-yl)-1H-pyrazol-4-yl)-1,5-naphthyridine]
< 1 nM	< 1 nM	< 1 nM	< 1 nM	< 1 nM	–	–	–	–	Fc1ccc(F)c([C@H]2C[C@H](F)CN2c2ccc3ncnc(-c4cnn(C5CCNCC5)c4)c3n2)c1 [Example 46]
< 10 nM	< 50 nM	< 10 nM	< 50 nM	< 10 nM	–	–	–	–	Fc1ccc(F)c([C@H]2C[C@H](F)CN2c2ccc3ncc(Cl)c(-c4cnc(N5CCOCC5)s4)c3n2)c1 [Example 61, 4-(5-(3-chloro-6-((2R,4S)-2-(2,5-difluorophenyl)-4-fluoropyrrolidin-1-yl)-1,5-naphthyridin-4-yl)thiazol-2-yl)morpholine]
< 1 nM	< 1 nM	< 1 nM	< 1 nM	< 10 nM	–	–	–	–	Fc1ccc(F)c([C@H]2C[C@H](F)CN2c2ccc3ncnc(-n4cc(C5CCNCC5)cn4)c3n2)c1 [Example 78, 6-((2R,4S)-2-(2,5-difluorophenyl)-4-fluoropyrrolidin-1-yl)-4-(4-(piperidin-4-yl)-1H-pyrazol-1-yl)pyrido[3,2-d]pyrimidine]
< 1 nM	< 1 nM	< 1 nM	< 10 nM	< 1 nM	–	–	–	–	O=S1(=O)CCC(n2cc(-c3c(Cl)cnc4ccc(N5C[C@@H](F)C[C@@H]5c5cc(F)ccc5F)nc34)cn2)CC1 [Example 47, 4-(4-(3-chloro-6-((2R,4S)-2-(2,5-difluorophenyl)-4-fluoropyrrolidin-1-yl)-1,5-naphthyridin-4-yl)-1H-pyrazol-1-yl)tetrahydro-2H-thiopyran 1,1-dioxide]
< 1 nM	< 1 nM	< 1 nM	< 10 nM	< 1 nM	–	–	–	–	OC[C@@H](O)CN1CCC(n2cc(-c3c(Cl)cnc4ccc(N5C[C@@H](F)C[C@@H]5c5cc(F)ccc5F)nc34)cn2)CC1 [Example 44, (S)-3-(4-(4-(3-chloro-6-((2R,4S)-2-(2,5-difluorophenyl)-4-fluoropyrrolidin-1-yl)-1,5-naphthyridin-4-yl)-1H-pyrazol-1-yl)piperidin-1-yl)propane-1,2-diol]
< 1 nM	< 1 nM	< 10 nM	< 1 nM	< 1 nM	–	–	–	–	O[C@H]1CN=C(Nc2ccnc3ccc(N4C[C@@H](F)C[C@@H]4c4cc(F)ccc4F)nc23)OC1 [Example 99, (S)-2-((6-((2R,4S)-2-(2,5-difluorophenyl)-4-fluoropyrrolidin-1-yl)-1,5-naphthyridin-4-yl)amino)-5,6-dihydro-4H-1,3-oxazin-5-ol]
